In patent publication US9161893B2, “Use, as antidandruff agent, of (ethoxyhydroxyphenyl) alkyl ketone or ethoxyhydroxyalkylphenol compounds” (L'OREAL, priority 2011, dated 2015):

How the values were obtained:
Malassezia globosa = assay: Antifungal growth inhibition on MLNA agar, scored against growth control; assay type: cell-based; conditions: for Inhibition score Malassezia globosa: MLNA agar, at least 5 days at 30° C.
Procedure: (§1) A solution containing 2% by weight of test compound is prepared in “modified Leeming and Notman liquid (MLNA)” in the following way: 0.2048 g of test compound is weighed out into qs for 10 ml of modified Leeming and Notman liquid; solubilization is carried out by heating and the use of ultrasound. The solutions of test product are twice as concentrated as the final test concentration, in order to take into account the dilution when they are brought into contact with the Malassezia suspension. One of the previously prepared solutions at 2% is diluted to ½ in modified Leeming and Notman liquid, so as to finally obtain a test concentration of 0.5%; the other solution is used as it is (at 2%) so as to finally obtain a test concentration of 1%. The Malassezia strains are brought into contact according to the table below: [table] The mixture is stirred and deposited at the surface of the MLNA agar. It is spread, with a sterile scraper, over the entire surface before recovering the excess. It is left to incubate for at least 5 days at 30° C. The antifungal effect of the compound is evaluated via the absence of growth of the Malassezia strain tested. This inhibition is evaluated relative to the growth control. The inhibitions are scored from 0 to 3 via assessment of the density of the culture at the surface of the agar, in comparison with the growth control, in the following way: [table]

Malassezia restricta = assay: as above; assay type: cell-based; conditions: for Inhibition score Malassezia restricta: MLNA agar, at least 5 days at 30° C.
Procedure: as §1

## CCOc1cc(CCC(C)=O)ccc1O [Compound tested]
Malassezia globosa; compound at 0.5%
  Growth inhibition of Malassezia globosa (in words): weakly
Malassezia globosa; compound at 1%
  Growth inhibition of Malassezia globosa (in words): completely inhibits the growth
Malassezia globosa; test concentration 0.5%
  Inhibition score Malassezia globosa: 1 (25% Growth < in the control dish)
Malassezia globosa; test concentration 1%
  Inhibition score Malassezia globosa: 3 (100% No growth)
Malassezia restricta; compound at 0.5%
  Growth inhibition of Malassezia restricta (in words): very effective
Malassezia restricta; compound at 1%
  Growth inhibition of Malassezia restricta (in words): completely inhibits the growth
Malassezia restricta; test concentration 0.5%
  Inhibition score Malassezia restricta: 3 (100% No growth)
Malassezia restricta; test concentration 1%
  Inhibition score Malassezia restricta: 3 (100% No growth)
